According to patent US7470679B2, “Constrained compounds as CGRP-receptor antagonists” (Bristol-Myers Squibb Company, priority 2006, dated 2008):

Target: T1, CGRP receptor (Homo sapiens, UniProt O60894+Q16602)
Test: CGRP Binding Assay ([125I]-CGRP radioligand displacement, SK-N-MC homogenate)
Set-up: endogenous in cells; host or cells: SK-N-MC cells (membrane homogenate)
Settings: Table 1, displacement of [125I]-CGRP
Protocol: CGRP Binding Assay. Tissue Culture. SK—N-MC cells were grown at 37° C. in 5% CO2 as a monolayer in medium consisting of MEM with Earle's salts and L-glutamine (Gibco) supplemented with 10% fetal bovine serum (Gibco). Cell Pellets. The cells were rinsed twice with phosphate-buffered saline (155 mM NaCl, 3.3 mM Na2HPO4, 1.1 mM KH2PO4, pH 7.4), and incubated for 5-10 min. at 4° C. in hypotonic lysis buffer consisting of 10 mM Tris (pH 7.4) and 5 mM EDTA. The cells were transferred from plates to polypropylene tubes (16×100 mm) and homogenized using a polytron. Homogenates were centrifuged at 32,000×g for 30 min. The pellets were resuspended in cold hypotonic lysis buffer with 0.1% mammalian protease inhibitor cocktail (Sigma) and assayed for protein concentration. The SK—N-MC homogenate was then aliquoted and stored at −80° C. until needed.
Radioligand Binding Assay. The compounds of invention were solubilized and carried through serial dilutions using 100% DMSO. Aliquots from the compound serial dilutions were further diluted 25 fold into assay buffer (50 mM Tris-Cl pH 7.5, 5 mM MgCl2, 0.005% Triton X-100) and transferred (volume 50 μl) into 96 well assay plates. [^125I]-CGRP (Amersham Biosciences) was diluted to 60 pM in assay buffer and a volume of 50 μl was added to each well. SK—N-MC pellets were thawed, diluted in assay buffer with fresh 0.1% mammalian protease inhibitor cocktail (Sigma), and homogenized again. SK—N-MC homogenate (5 μg/well) was added in a volume of 100 μl. The assay plates were then incubated at room temperature for 2 h. Assays were stopped by addition of excess cold wash buffer (20 mM Tris-Cl pH 7.5, 0.1% BSA) immediately followed by filtration over glass fiber filters (Whatman GF/B) previously soaked in 0.5% PEI. Non-specific binding was defined with 1 μM beta-CGRP. Protein bound radioactivity was determined using a gamma or scintillation counter. The IC50 was defined as the concentration of a compound of invention required to displace 50% of radioligand binding.

T1 sequence (Q16602 23-461): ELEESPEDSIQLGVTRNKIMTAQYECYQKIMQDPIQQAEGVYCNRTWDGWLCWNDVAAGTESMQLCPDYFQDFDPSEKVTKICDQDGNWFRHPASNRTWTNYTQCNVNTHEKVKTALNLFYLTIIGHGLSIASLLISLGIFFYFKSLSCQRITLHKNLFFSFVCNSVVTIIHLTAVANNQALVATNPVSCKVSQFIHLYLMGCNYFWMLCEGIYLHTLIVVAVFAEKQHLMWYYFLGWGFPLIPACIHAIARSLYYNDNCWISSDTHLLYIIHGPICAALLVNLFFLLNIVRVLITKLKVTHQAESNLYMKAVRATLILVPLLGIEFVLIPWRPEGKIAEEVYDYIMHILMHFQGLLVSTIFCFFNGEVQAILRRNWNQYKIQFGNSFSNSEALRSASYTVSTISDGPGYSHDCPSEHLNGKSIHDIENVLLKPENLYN
T1 sequence (O60894 27-148): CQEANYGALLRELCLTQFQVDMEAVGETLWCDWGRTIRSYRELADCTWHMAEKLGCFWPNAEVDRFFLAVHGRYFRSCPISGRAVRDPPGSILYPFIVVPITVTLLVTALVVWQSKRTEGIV

| Compound | IC50 [nM] |
| --- | --- |
| O=C(C[C@@H]1Cc2cc(Br)c3[nH]nc(Br)c3c2CN(CC(F)(F)F)C1=O)N1CCC(c2cc3ccccc3[nH]c2=O)CC1 | 0.1 to 10 |
| O=C(C[C@@H]1Cc2cc(Br)c3[nH]nc(Br)c3c2CN(CC(F)(F)F)C1=O)N1CCC(c2cc3cccc(F)c3[nH]c2=O)CC1 | 0.1 to 10 |
| O=C1OCc2c(cc(Br)c3[nH]ncc23)C[C@H]1CC(=O)N1CCC(c2cc3ccccc3[nH]c2=O)CC1 | 0.1 to 10 |

Same assay, conditions: Table 2, displacement of [125I]-CGRP

| Compound | IC50 [nM] |
| --- | --- |
| O=C(N[C@@H]1Cc2ccc3[nH]ncc3c2CN(CCN2CCOCC2)C1=O)N1CCC(N2Cc3ccccc3NC2=O)CC1 | 10 to 100 |
| O=C1NCCC2(CCN(C(=O)N[C@@H]3Cc4ccc5[nH]ncc5c4CN(Cc4ccc(C(F)(F)F)cc4)C3=O)CC2)N1 | 100 to 1000 |
| CC(C)(C)CN1Cc2c(ccc3[nH]ncc23)C[C@@H](CC(=O)N2CCC(N3Cc4ccccc4NC3=O)CC2)C1=O | 10 to 100 |
| O=C(NC1Cc2ccc3[nH]ncc3c2CN(CCc2ccncc2)C1=O)N1CCC(N2Cc3ccccc3NC2=O)CC1 (centres unmarked) | 0.1 to 10 |
| O=C1Nc2ccccc2C2(CCN(C(=O)NC3Cc4ccc5[nH]ncc5c4CN(CCc4ccncc4)C3=O)CC2)N1 (centres unmarked) | 100 to 1000 |
| O=C(C[C@@H]1Cc2cc(Cl)c3[nH]ncc3c2CN(Cc2cccnc2)C1=O)N1CCC(c2cc(-c3ccccc3)[nH]n2)CC1 | 10 to 100 |
| CC(C)(C)CN1Cc2c(ccc3[nH]ncc23)C[C@@H](CC(=O)N2CCC(n3cc(-c4ccccc4)[nH]c3=O)CC2)C1=O | 10 to 100 |
| O=C1Nc2ccccc2CC1C1CCN(C(=O)C[C@@H]2Cc3ccc4[nH]ncc4c3CN(Cc3ccccc3)C2=O)CC1 (some centres unmarked) | 100 to 1000 |
| O=C1Nc2ccccc2CC1N1CCN(C(=O)C[C@@H]2Cc3ccc4[nH]ncc4c3CN(Cc3ccccc3)C2=O)CC1 (some centres unmarked) | 100 to 1000 |
| CC(C)(C)CN1Cc2c(ccc3[nH]ncc23)C[C@@H](NC(=O)N2CCC3(CC2)CNC(=O)c2ccccc23)C1=O | > 1000 |
| CC(C)(C)CN1Cc2c(ccc3[nH]ncc23)C[C@@H](CC(=O)N2CCC(N3Cc4ccccc4CC3=O)CC2)C1=O | 100 to 1000 |
| CC(C)(C)CN1Cc2c(cc(Cl)c3[nH]ncc23)C[C@@H](CC(=O)N2CCC(N3C(=O)CN(c4ccccc4)C3=O)CC2)C1=O | 10 to 100 |
| CC(C)(C)CN1Cc2c(cc(Cl)c3[nH]ncc23)C[C@@H](CC(=O)N2CCC(c3cc4ccccc4c[n+]3[O-])CC2)C1=O | 10 to 100 |
| CC(C)(C)CN1Cc2c(cc(Cl)c3[nH]ncc23)C[C@@H](CC(=O)Nc2ccc3c(c2)CCC2(C3)NC(=O)NC2=O)C1=O (some centres unmarked) | 0.1 to 10 |
| CC(C)(C)CN1Cc2c(cc(Cl)c3[nH]ncc23)C[C@@H](CC(=O)Nc2ccc3c(c2)CC2(C3)NC(=O)NC2=O)C1=O (some centres unmarked) | 10 to 100 |
| O=C(C[C@@H]1Cc2cc(Br)c3[nH]ncc3c2CN(CC2CC2)C1=O)N1CCC(c2cc3ccccc3[nH]c2=O)CC1 | 0.1 to 10 |
| COCCN1Cc2c(cc(Br)c3[nH]ncc23)C[C@@H](CC(=O)N2CCC(c3cc4cccc(F)c4[nH]c3=O)CC2)C1=O | 10 to 100 |

Target: T1, CGRP receptor
Test: Cyclic AMP Functional Antagonism Assay
Format: cell-based
Set-up: cells that endogenously express the human CGRP receptor; endogenous in cells; host or cells: SK-N-MC cells
Settings: Table 2; SK-N-MC cells, 0.3 nM CGRP, 30 min; read-out: cAMP Function IC50
Protocol: Cyclic AMP Functional Antagonism Assay. Antagonism of the compounds of invention was determined by measuring the formation of cyclic AMP (adenosine 3′5′-cyclic monophosphate) in SK—N-MC cells that endogenously express the human CGRP receptor. CGRP receptor complex is coupled with Gs protein and CGRP binding to this complex leads to the cyclic AMP production via Gs-dependent activation of an adenylate cyclase (Juaneda C et al., TiPS, 2000; 21:432-438; incorporated by reference herein). Consequently, CGRP receptor antagonists inhibit CGRP-induced cyclic AMP formation in SK—N-MC cells (Doods H et al., Br J Pharmacol, 2000; 129(3):420-423); incorporated by reference herein). For cyclic AMP measurements SK—N-MC cells were incubated with 0.3 nM CGRP alone or in the presence of various concentrations of the compounds of invention for 30 min at room temperature. Compounds of invention were pre-incubated with SK—N-MC cells for 15 min before the addition of CGRP to allow receptor occupancy (Edvinsson et al., Eur J Pharmacol, 2001, 415:39-44; incorporated by reference herein). Cyclic AMP was extracted using the lysis reagent and its concentration was determined by radioimmunoassay using RPA559 cAMP SPA Direct Screening Assay Kit (Amersham Pharmacia Biotech). IC50 values were calculated using Excel fit.

| Compound | IC50 [nM] |
| --- | --- |
| CC(C)(C)CN1Cc2c(ccc3[nH]ncc23)C[C@@H](CC(=O)N2CCC(N3Cc4ccccc4NC3=O)CC2)C1=O | 0.1 to 10 |
| O=C(NC1Cc2ccc3[nH]ncc3c2CN(CCc2ccncc2)C1=O)N1CCC(N2Cc3ccccc3NC2=O)CC1 (centres unmarked) | 0.1 to 10 |
| CC(C)(C)CN1Cc2c(ccc3[nH]ncc23)C[C@@H](CC(=O)N2CCC(n3cc(-c4ccccc4)[nH]c3=O)CC2)C1=O | 10 to 100 |
